Tested on: NEC model in neonatal rats
Assay: Induction and evaluation of NEC in neonatal rats (formula feeding by oral gavage plus hypoxia)
Type: in vivo, Sprague-Dawley rats
Conditions: HMO fractions/subfractions added to formula at their respective concentrations in pooled HMO at 10 mg/ml, 96 h post-partum
Excerpt: Instead, we tested HMO in a well-established NEC model with neonatal Sprague-Dawley rats. We induced time-pregnant rats by oxytocin and randomized their pups into the different intervention groups. Some pups were left with the dam to serve as breast-fed controls; others were formula-fed by oral gavage twice daily. All pups were exposed to hypoxia thrice daily. On day-of-life 4, we sacrificed the pups and analyzed their intestines for macroscopic and microscopic signs of NEC. The ileum was prepared for H&E staining and evaluated blindly by three independent investigators to determine NEC pathology scores. […] We then isolated HMO from pooled human milk and added them to the formula.
Each HMO fraction and subfraction was tested at concentrations that were based on their relative abundance in pooled HMO at 10 mg/mL, the average concentration in mature human milk. Assuming an average molecular weight of 1,000 g/mol for pooled HMO, 10 mg/mL is equivalent to 10 mM.
Briefly, pregnant time-dated Sprague-Dawley rats were induced at term using Pitocin (1-2 U per animal). Immediately after birth, neonates were randomized into one of the different study groups. Animals in the dam-fed (DF) group remained with the dam. All other animals were separated from the dam, housed in a temperature- and humidity-controlled incubator and orally gavaged with a special rodent formula (0.2 ml) twice daily. […] A 0.5 cm section of the terminal ileum was prepared for H&E staining per standard protocols and scored blindly by three investigators based on morphological changes that included epithelial sloughing, villus oedema, infiltration of neutrophils, apoptosis of villus enterocytes, crypt hyperplasia and misaligned nuclei in the epithelium. […] Pathology scores were plotted for each animal and the mean calculated per group. […] Differences between the groups were calculated by one-way ANOVA with the Kruskal-Wallis test and Dunn's multiple comparison test. […]

`CC(=O)N[C@H]1[C@H](O[C@H]2[C@@H](O)[C@@H](CO)O[C@@H](O[C@@H]([C@H](O)[C@@H](O)C=O)[C@H](O)CO)[C@@H]2O)O[C@H](CO[C@]2(C(=O)O)C[C@H](O)[C@@H](NC(C)=O)[C@H]([C@H](O)[C@H](O)CO)O2)[C@@H](O)[C@@H]1O[C@@H]1O[C@H](CO)[C@H](O)[C@H](O[C@]2(C(=O)O)C[C@H](O)[C@@H](NC(C)=O)[C@H]([C@H](O)[C@H](O)CO)O2)[C@H]1O` [DSLNT, Disialyllacto-N-tetraose] was tested, and the ileum pathology score (listed as #2) was “significantly reduced NEC”, the ileum pathology score (listed as HMO 2) was 0.64±0.41 and the ileum pathology score (listed as HMO #2) was “significantly reduced NEC pathology scores”.

From patent US9675649B2, “Disialyllacto-N-tetraose (DSLNT) or variants, isomers, analogs and derivatives thereof to prevent or inhibit bowel disease” (The Regents of the University of California, priority 2011, dated 2017)
